According to US9527838B2, “2-pyridinecarboxamide derivatives, compositions containing such compounds, and methods of treatment” (priority 2012, dated 2016):

Molecular target: Recombinant human liver glucokinase (Homo sapiens (Human), UniProt P35557)
Assay: Glucokinase activation assay (G6PDH-coupled, Thio-NADH absorbance at 405 nm)
Assay type: biochemical
Details: for EC50: 2.5 mM Glu, 30° C.
Text: The glucokinase activity can, for instance, be determined without directly measuring glucose-6-phosphate by measuring the amount of Thio-NADH generated during the production of phosphogluconolactone from glucose-6-phosphate by a reporter enzyme glucose-6-phosphate dehydrogenase.
To test the exemplified compounds, the following assay was employed. Recombinant human liver glucokinase was expressed as a FLAG fusion protein in E. coli, and purified on […] M2 AFFINITY GEL (Sigma). The assay was carried out at 30° C. in a 96-well plate. In the plate was distributed 69 μl each of assay buffer (25 mM Hepes Buffer: pH=7.2, 2 mM MgCl2, 1 mM ATP, 0.5 mM TNAD, 1 mM dithiothreitol), to which was added 1 μl of a DMSO solution of the compound or DMSO as control. Then, 20 μl of pre-ice-cooled enzyme mixture (FLAG-GK, 20 U/ml G6PDH) was distributed thereto, to which was added 10 μl of 25 mM glucose as substrate to initiate the reaction (final glucose concentration=2.5 mM). After starting the reaction, the absorbance at 405 nm was measured every 30 seconds for 10 minutes to evaluate the compound based on the initial increase for 5 minutes. FLAG-GK was added so that the increase of absorbance after 5 minutes fell between 0.05 to 0.1 in the presence of 1% DMSO.
The OD values of the respective compounds were measured in the respective concentrations, wherein the OD value of DMSO as control is regarded as 100%.

Recombinant human liver glucokinase, sequence (P35557 other isoform, or with tags, fused parts or gaps): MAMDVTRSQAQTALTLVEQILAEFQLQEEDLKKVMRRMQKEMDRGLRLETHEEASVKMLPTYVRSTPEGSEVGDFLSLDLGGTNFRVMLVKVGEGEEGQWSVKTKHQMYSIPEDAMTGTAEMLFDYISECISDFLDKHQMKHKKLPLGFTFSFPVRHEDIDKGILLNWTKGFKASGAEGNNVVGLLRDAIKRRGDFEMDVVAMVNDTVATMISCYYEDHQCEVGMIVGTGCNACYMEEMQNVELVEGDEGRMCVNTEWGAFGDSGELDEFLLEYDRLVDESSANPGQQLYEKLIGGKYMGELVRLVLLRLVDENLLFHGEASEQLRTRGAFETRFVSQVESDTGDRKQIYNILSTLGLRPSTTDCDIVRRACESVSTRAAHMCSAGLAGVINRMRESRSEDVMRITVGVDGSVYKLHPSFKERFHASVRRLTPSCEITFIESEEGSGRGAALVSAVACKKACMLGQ

| SMILES | Emax [%] | EC50 [nM] |
| --- | --- | --- |
| CCOC(=O)CSc1cnc(NC(=O)c2nc(Sc3nncn3C)ccc2Sc2ccc(OC)cc2)s1 [Example 1, Ethyl ({2-[({3-[(4-methoxyphenyl)sulfanyl]-6-[(4-methyl-4H-1,2,4-triazol-3-yl)sulfanyl]pyridin-2-yl}carbonyl)amino]-1,3-thiazol-5-yl}sulfanyl)acetate] | 471 | 7.5 |
| Cn1cnnc1Sc1ccc(Sc2ccc(F)cc2)c(C(=O)Nc2ncc(SCC(C)(C)C(=O)O)s2)n1 [Example 21, 3-({2-[({3-[(4-Fluorophenyl)sulfanyl]-6-[(4-methyl-4H-1,2,4-triazol-3-yl)sulfanyl]pyridin-2-yl}carbonyl)amino]-1,3-thiazol-5-yl}sulfanyl)-2,2-dimethylpropanoic acid] | 473 | 17.2 |
| CCOC(=O)Cc1csc(NC(=O)c2nc(Sc3nncn3C)ccc2Sc2ccc(C(F)(F)F)cc2)n1 [Example 46, Ethyl (2-{[(6-[(4-methyl-4H-1,2,4-triazol-3-yl)sulfanyl]-3-{[4-(trifluoromethyl)phenyl]sulfanyl}pyridin-2-yl)carbonyl]amino}-1,3-thiazol-4-yl)acetate] | 466 | 66.3 |
| CCOC(=O)CSc1cnc(NC(=O)c2nc(Sc3ccc(F)cc3)ccc2Sc2ccc(F)cc2)s1 [Example 27] | 182 |  |
| COc1ccc(Sc2ccc(Sc3nncn3C)nc2C(=O)Nc2ncc(CCC(=O)O)s2)cc1 [Example 8, 3-{2-[({3-[(4-Methoxyphenyl)sulfanyl]-6-[(4-methyl-4H-1,2,4-triazol-3-yl)sulfanyl]pyridin-2-yl}carbonyl)amino]-1,3-thiazol-5-yl}propanoic acid] | 626 | 58.7 |
